Results: US20110046107A1, “SULFONYL-SUBSTITUTED CARBAPENEM COMPOUNDS” (priority 2007, published 2011)
Values after ≈ are worked out from the molar mass of the structure shown. Like-named read-outs stand apart in the source and are kept apart here.

What was measured:
[1] = Pharmacokinetic study of the compounds in SD rat (intravenous injection); format: in vivo, SD male rats
Procedure: Test drugs: the compound 1, 6, 8 and 9 prepared in the examples
Control drugs: Meropenem (Meropenem for injection), commercially available; Doripenem (Doripenem for Injection).
Internal standard substance: Warfarin, a white powder, purity 99%, batch number: 0072-8501, provided by Shanghai Institute for Drug Control.
Drug formulation: the test drugs were formulated before use by being dissolved in physiological saline to make a final concentration of 5 mg/mL for intravenous injection.
Test animal: SD male rats, weight: 200˜250 g, purchased from SHANGHAI SLAC LABORATORY ANIMAL CO. LTD.
Drug administration: The SD male rats were randomly divided into five groups with 3 in each group, and given the drugs by intravenous injection at a dose of 10 mg/kg. The animals were weighed before administration.
Collection of Samples: Zero time was marked before administration; 0.5 mL of blood was respectively sampled from orbit venous plexus at 5 min, 15 min, 30 min, 45 min, 1 h, 2 h, 4 h, 6 h, 8 h, 24 h after administration into heparinized centrifuge tubes. The samples were centrifuged for 6 minutes at 8000 rpm and the supernatant plasma was separated. The plasma was frozen at −20° C. for LC-MS/MS analysis.
Chromatographic conditions: column: Gemini C6-Phenyl (50 mm×4.6 mm, 5 μm); mobile phase: 0.1% of formic acid-water-acetonitrile (5:35:60, v/v/v); flow rate: 1 mL/min; column temperature: 35-40° C.; injection volume: 5 μL; split ratio: 1/5.
Mass spectrometer conditions: scanning mode: cation multiple reactions monitoring (MRM); ion source: electrospray ionization (ESI); Nebulize gas: 8 L/min; Curtain gas: 8 L/min; Collision gas: 4 L/min; Ionspray voltage: 4500 v; Temperature: 400° C./500° C.
Preparation of the Standard Curve and Quality-Control Sample: a Suitable Amount of the test drug was weighed precisely and then formulated into a stock solution (2.6 mg/mL) with ultrapure water. The stock solution was diluted with methanol to obtain a series of working solutions in a concentration of 25000, 5000, 2500, 500, 250 and 50 ng/mL, respectively. 100 μL of plasma samples were separately added into 20 μL of said working solutions to obtain the calibration solutions in a concentration of 5000, 1000, 500, 100, 50 and 10 ng/mL. By the same method, the quality-controlled sample solutions in a concentration of 4000, 800 and 20 ng/mL can be prepared. A standard curve was obtained by chromatographic analysis of the samples.
Sample preparation: 20 μL of acetonitrile and 200 μL (200 ng/mL) of Warfarin in acetonitrile were added into 100 μL of plasma sample, then spun for 1 minute and centrifuged for 5 minutes at 15000 rpm. 100 μL of the supernatant was taken, where 3 μL aliquot of the supernatant was used for the LC/MS/MS analysis.
Dosing concentration: The accuracy of the drug concentration in dosing solution for intravenous injection was 103.2%, determined by analysis of the formulated drugs using HPLC and comparison with the standards.
Data analysis: The drug concentration in plasma would be considered as zero if under the detection limit (10 ng/mL). The pharmacokinetics parameters were calculated by the non-compartment model using Winnonlin Professional 5.2 pharmacokinetics software.
Pharmacokinetics: The pharmacokinetics parameters and drug concentration-time curve were obtained by measuring the plasma drug concentration at different time points.

[2] = system: methicillin-sensitive staphylococcus aureus (MSSA); experiment: In vitro antibacterial activity, agar dilution method (clinical isolates); format: cell-based; conditions: read-out: MIC90 S. aureus MSSA
From the text: (§1) Bacterial strains for test: All the bacterial strains are clinical isolates and purchased from public organizations. methicillin-sensitive staphylococcus aureus (MS SA), methicillin-resistant staphylococcus aureus (MRSA), methicillin-sensitive staphylococcus epidermidis (MSSE), methicillin-resistant staphylococcus epidermidis (MRSE), streptococcus pyogenes, penicillin-sensitive streptococcus pneumoniae (PSSP), penicillin-resistant streptococcus pneumoniae (PRSP), Escherichia coli, Citrobacter freundii, Enterobacter cloacae, Hemophilus influenza, Klebsiella pneumonia (producing ESBL), Morganella morganii, Proteus mirabilis, Serratia marcescens, and Pseudomonas aeruginosa.
(§2) Drugs to be tested: compounds of the invention prepared in the examples; the chemical names, structural formulae, preparation materials, and preparation methods are provided in the preparation examples of the compounds;
(§3) Meropenem (Meropenem for injection), Ertapenem (Ertapenem for injection), and Doripenem (Doripenem for injection) commercially available
(§4) Experimental method: the agar dilution method, by reference to Methodology of Pharmacological Experiment (XU Shuyun et al, published by the Peoples Medical Publishing House, 1st Edition, August, 1982; 3rd Edition, 5th printing, January 2002, p 1659-1660).

Proteus mirabilis = experiment: as above; format: cell-based; conditions: clinically isolated strains, Gram-negative, agar dilution, read-out: MIC90 Proteus mirabilis
From the text: as §1, §2, §3, §4

Pseudomonas aeruginosa = experiment: as above; format: cell-based; conditions: clinically isolated strains, Gram-negative
From the text: as §1, §2, §3, §4

streptococcus pyogenes = experiment: as above; format: cell-based; conditions: clinically isolated strains, Gram-positive, read-out: MIC90 S. pyogenes
From the text: as §1, §2, §3, §4

Escherichia coli = experiment: as above; format: cell-based; conditions: clinically isolated strains, Gram-negative, read-out: MIC90 E. coli
From the text: as §1, §2, §3, §4

[3] = system: methicillin-resistant staphylococcus epidermidis (MRSE); experiment: as above; format: cell-based; conditions: clinically isolated strains, Gram-positive, read-out: MIC90 S. epidermidis MRSE
From the text: as §1, §2, §3, §4

Hemophilus influenza = experiment: as above; format: cell-based; conditions: read-out: MIC90 Hemophilus influenza
From the text: as §1, §2, §3, §4

Enterobacter cloacae = experiment: as above; format: cell-based; conditions: read-out: MIC90 Enterobacter cloacae
From the text: as §1, §2, §3, §4

[4] = system: Klebsiella pneumonia (producing ESBL); experiment: as above; format: cell-based; conditions: Klebsiella pneumoniae; clinically isolated strains (producing ESBL), Gram-negative, agar dilution; read-out: MIC90 Klebsiella pneumonia
From the text: as §1, §2, §3, §4

Citrobacter freundii = experiment: as above; format: cell-based; conditions: clinically isolated strains, Gram-negative
From the text: as §1, §2, §3, §4

[5] = system: penicillin-sensitive streptococcus pneumoniae (PSSP); experiment: as above; format: cell-based; conditions: clinically isolated strains, Gram-positive, read-out: MIC90 S. pneumoniae PSSP
From the text: as §1, §2, §3, §4

[6] = system: methicillin-sensitive staphylococcus epidermidis (MSSE); experiment: as above; format: cell-based; conditions: read-out: MIC90 S. epidermidis MSSE
From the text: as §1, §2, §3, §4

Morganella morganii = experiment: as above; format: cell-based; conditions: clinically isolated strains, Gram-negative
From the text: as §1, §2, §3, §4

Serratia marcescens = experiment: as above; format: cell-based; conditions: read-out: MIC90 Serratia marcescens
From the text: as §1, §2, §3, §4

[7] = system: methicillin-resistant staphylococcus aureus (MRSA); experiment: as above; format: cell-based; conditions: clinically isolated strains, Gram-positive, read-out: MIC90 S. aureus MRSA
From the text: as §1, §2, §3, §4

[8] = system: penicillin-resistant streptococcus pneumoniae (PRSP); experiment: as above; format: cell-based; conditions: clinically isolated strains, Gram-positive, read-out: MIC90 S. pneumoniae PRSP
From the text: as §1, §2, §3, §4

[9] = cited from earlier work
[10] = in vivo, SD male rats, intravenous injection 10 mg/kg, plasma, X ± SD, n = 3, read-out: t1/2 (half lives) (converted)
[11] = clinically isolated strains, Gram-positive, agar dilution
[12] = clinically isolated strains, Gram-negative, agar dilution

Structure (SMILES)	half-life [1, 10] [min]	MIC90 [2, 11] [µg/mL]	MIC90 (Proteus mirabilis) [µg/mL]	MIC90 (Pseudomonas aeruginosa) [µg/mL]	MIC90 (streptococcus pyogenes) [ng/mL]	MIC90 (Escherichia coli) [µg/mL]	MIC90 [3] [µg/mL]	MIC90 (Hemophilus influenza; [12]) [µg/mL]	MIC90 (Enterobacter cloacae; [12]) [µg/mL]	MIC90 [4] [µg/mL]	MIC90 (Citrobacter freundii) [µg/mL]	MIC90 [5] [ng/mL]	MIC90 [6, 11] [µg/mL]	MIC90 (Morganella morganii) [µg/mL]	MIC90 (Serratia marcescens; [12]) [µg/mL]	MIC90 [7] [µg/mL]	MIC90 [8] [µg/mL]	half-lives in human body [9]	also measured
C[C@@H](O)[C@H]1C(=O)N2C(C(=O)O)=C(SC3CN(S(=O)(=O)N(C)C)C3)[C@H](C)[C@H]12 [Compound 6, (4R,5S,6S)-3-[1-(N,N-dimethylaminosulfonyl)-azetidin-3-yl]-thio-6-[(1R)-1-hydroxyethyl]-4-methyl-7-oxo-1-aza-bicyclo-[3.2.0]hept-2-ene-2-carboxylic acid]	18 ± 1.8	0.063 (≈ 0.155 µM)	0.063 (≈ 0.155 µM)	16 (≈ 39.5 µM)	8 (≈ 0.0197 µM)	0.016 (≈ 0.0395 µM)	16 (≈ 39.5 µM)	0.25 (≈ 0.617 µM)	0.25 (≈ 0.617 µM)	0.125 (≈ 0.308 µM)	0.063 (≈ 0.155 µM)	4 (≈ 0.00986 µM)	0.063 (≈ 0.155 µM)	0.063 (≈ 0.155 µM)	0.063 (≈ 0.155 µM)	8 (≈ 19.7 µM)	1 (≈ 2.47 µM)	–	–
CCCCN(CCCC)S(=O)(=O)N1CC(SC2=C(C(=O)O)N3C(=O)[C@H]([C@@H](C)O)[C@H]3[C@H]2C)C1 [Compound 8, (4R,5S,6S)-3-[1-(N,N-dibutylaminosulfonyl)-azetidin-3-yl]thio-6-[(1R)-1-hydroxyethyl]-4-methyl-7-oxo-1-aza-bicyclo-[3.2.0]hept-2-ene-2-carboxylic acid]	16.2 ± 1.8	–	0.063 (≈ 0.129 µM)	8 (≈ 16.3 µM)	4 (≈ 0.00817 µM)	0.016 (≈ 0.0327 µM)	8 (≈ 16.3 µM)	0.125 (≈ 0.255 µM)	–	0.032 (≈ 0.0654 µM)	0.016 (≈ 0.0327 µM)	4 (≈ 0.00817 µM)	–	0.032 (≈ 0.0654 µM)	–	8 (≈ 16.3 µM)	1 (≈ 2.04 µM)	–	MIC90 [2]: 0.125 µg/mL (≈ 0.255 µM); MIC90 (Enterobacter cloacae): 0.125 µg/mL (≈ 0.255 µM); MIC90 [6]: 0.125 µg/mL (≈ 0.255 µM); MIC90 (Serratia marcescens): 0.125 µg/mL (≈ 0.255 µM)
C[C@@H](O)[C@H]1C(=O)N2C(C(=O)O)=C(S[C@@H]3CN[C@H](CNS(N)(=O)=O)C3)[C@H](C)[C@H]12 [doripenem, Doripenem, reference compound]	–	0.125 (≈ 0.297 µM)	0.5 (≈ 1.19 µM)	8 (≈ 19 µM)	8 (≈ 0.019 µM)	0.063 (≈ 0.15 µM)	16 (≈ 38 µM)	–	0.025 (≈ 0.0595 µM)	0.125 (≈ 0.297 µM)	0.063 (≈ 0.15 µM)	16 (≈ 0.038 µM)	0.125 (≈ 0.297 µM)	0.063 (≈ 0.15 µM)	0.25 (≈ 0.595 µM)	16 (≈ 38 µM)	1 (≈ 2.38 µM)	about 1 h	half-life ([1]; male, SD, in vivo, iv, 10 mg/kg): 6.6 ± 0.6 min; MIC90 (Hemophilus influenza): 0.5 µg/mL (≈ 1.19 µM)
C[C@@H](O)[C@H]1C(=O)N2C(C(=O)O)=C(S[C@@H]3CN[C@H](C(=O)N(C)C)C3)[C@H](C)[C@H]12 [meropenem, Meropenem, reference compound]	–	0.25 (≈ 0.652 µM)	0.125 (≈ 0.326 µM)	16 (≈ 41.7 µM)	8 (≈ 0.0209 µM)	0.032 (≈ 0.0834 µM)	32 (≈ 83.4 µM)	0.25 (≈ 0.652 µM)	1 (≈ 2.61 µM)	0.5 (≈ 1.3 µM)	0.063 (≈ 0.164 µM)	16 (≈ 0.0417 µM)	0.25 (≈ 0.652 µM)	0.063 (≈ 0.164 µM)	0.125 (≈ 0.326 µM)	64 (≈ 167 µM)	1 (≈ 2.61 µM)	about 1 h	half-life ([1]; SD male rats, intravenous injection 10 mg/kg, plasma, X ± SD, n = 3, read-out: t1/2 (half lives) (converted)): 7.2 ± 0.6 min
